Broadly, the pKa is the pH at which an ionisable group is half protonated. A higher pKa goes with a weaker acid or stronger base.

Structures are written as SMILES.

The values below come from patent US20250051285A1, “C[…] FORM OF EP4 ANTAGONIST” (Eisai R&D Management Co., Ltd., priority 2021, published 2025).

Type in all cases: physicochemical
Data set [1] in a line: Solubility in aqueous solutions.
The nature of data set [2]: Solubility in organic solvents and water.
A short description of data set [3]: Hygroscopicity by dynamic vapor sorption (DVS). As to the method:
Hygroscopicity of crystalline free acid form of Compound 1 was measured using the dynamic vapor sorption (DVS) method.

A short description of data set [4]: Dissociation constant (pKa) by capillary electrophoresis. As to conditions: capillary electrophoresis (CE), buffer solution I = 0.05, 25° C.

As for `C[C@H](NC(=O)c1c(C(F)F)nn(C)c1Oc1cccc(C(F)(F)F)c1)c1ccc(C(=O)O)cc1` [Compound 1, (S)-4-(1-(3-(difluoromethyl)-1-methyl-5-(3-(trifluoromethyl)phenoxy)-1H-pyrazole-4-carboxamido)ethyl)benzoic acid], the “Solubility in 0.1N HCl” value in data set [1] (0.1N HCl) was 0.3, pH 9) and practically insoluble in 0.1N HCl and. In addition, the “Solubility in Britton-Robinson buffer pH 9” value in data set [1] (Britton-Robinson buffer, I = 0.3, pH 9) is reported as “Very slightly soluble in Britton-Robinson buffer (I =”. Besides, the “Solubility in 2-propanol” value in data set [2] (2-propanol) is “ethanol and ethyl acetate, slightly soluble in 2-”. For the same compound, the Solubility in acetonitrile entry in data set [2] (acetonitrile) was “soluble”. In addition, in data set [2] (ethanol), the Solubility in ethanol entry is on record as “sparingly soluble”. In addition, the “Solubility in ethyl acetate” value in data set [2] (ethyl acetate) is on record as “sparingly soluble”. Further, in data set [2] (heptane), the Solubility in heptane result is “practically insoluble in water and heptane”. Further, the Solubility in water result in data set [2] (water) is “practically insoluble in water and heptane”. Moreover, the Hygroscopicity result in data set [3] (DVS adsorption and desorption isotherm) is given as “Non-hygroscopic”. Further, the “Weight change in DVS” value in data set [3] (relative humidity 5% to 95% RH at 25° C.) is given as “No significant weight change”. This compound returned a pKa in data set [4] of 4.1.
